“Also recorded” adds a separate entry of the source.
Columns and labels:
Type in all cases: in vivo, mouse
ciliary body [1] = experiment: Lectin labeling of vascular endothelial cells and TUNEL staining after PDT in C57BL/6 normal mice; settings: 4.0 mg/kg, 180 degrees; 1 day after PDT
Description: (§1) Lectin labeling of vascular endothelial cells and TUNEL staining (to examine apoptotic cells) was performed 1 day after PDT in C57BL16 normal mice (n=2). In DBA/2J mice, only TUNEL staining was performed. PDT was performed to cover 180 degrees of the ciliary body at a dose of 4.0 mg/kg (C57BL/6) and 1.0 mg/kg (DBA/2J) verteporfin to compare the degree of staining between irradiated area and non-irradiated area. Non-operated fellow eyes (n=2) were used as controls. After sufficient anesthesia, the animals were perfused with 8 mL phosphate buffered saline (PBS) administered via a catheter in the left ventricle. After PBS perfusion, fluorescein-isothiocyanate (FITC)-coupled Concanavalin A lectin (20 μg/mL in PBS, pH 7.4, 5 mg/kg BW)(Vector Labs, Burlingame, Calif.) was then perfused to stain vascular endothelial cells. Four percent paraformaldehyde in 0.1 PBS (pH 7.4) was perfused following PBS perfusion to remove residual unbound lectin. Enucleated eyes were fixed in 4% paraformaldehyde in 0.1 PBS overnight and were immersed in graded sucrose in 0.1 PBS. The samples were embedded in optimal cutting temperature (OCT) compound (Tissue-Tek, Tokyo, Japan), and sectioned vertically at 10-μm. TUNEL staining was performed according to the manufacturer's protocol (Fluorescein In Situ Apoptosis Detection Kit; CHEMICON International, Temecula, Calif.) to detect retinal cell death induced by PDT. […]

retinal ganglion cells = experiment: Retinal ganglion cell (RGC) count in DBA/2J mice, fluorochrome retrograde labeling
Description: Four weeks after the end of IOP follow up, RGC was counted in DBA/2J mice (11 months old) as described previously (Levkovitch-Verbin et al. (2000) INVEST. OPHTHALMOL. VIS. SCI. 41:4169-74, Danias et al. (2003) INVEST. OPHTHALMOL. VIS. SCI. 44:5151-62) with slight modification (n=4). After the mice were anesthetized, the skin over the cranium was incised, and the scalp was exposed. Holes approximately 2 mm in diameter were drilled in the skull 4 mm posterior to the bregma, 1 mm lateral to the midline on both sides of the midline raphe. The neurotracer dye fluorochrome (Fluoro-gold, Englewood, Colo.) (4% solution in saline) was directly applied (1 μL, at a rate of 0.5 μL/min) at a depth of 2 mm from the brain surface using a Hamilton syringe (Hamilton, Reno, Nev.). Skull openings then were sealed with antibiotic ointment. The overlying skin was sutured and antibiotic ointment applied externally.
Seven days after the application of fluorochrome, the eyes were enucleated. […] Cell counting was performed as previously described (Nakazawa et al. (2002) INVEST. OPHTHALMOL. VIS. SCI. 43:3319-26) under a fluorescence microscope (Leica Microsystems, Wetzlar, Germany) using a UV filter set. RGC densities were determined by counting the tracer-labeled RGCs in 12 distinct areas of 9.0×10^−2 mm^2 each (three areas per retinal quadrant at 1/6, 3/6 and 5/6 of the retinal radius). […]

ciliary body [2] = experiment: Histology (light and electron microscopy) of ciliary body after PDT in DBA/2J mice; settings: 1.0 mg/kg
Description: Eyes were enucleated at 6 hours (only DBA/2J), at 1 and 7 days after treatment, and at the end of IOP follow up (8 weeks after treatment)(n=2 in each group at each time point) and processed for light and transmission electron microscopic examination. The eyes were bisected behind the limbus, placed in modified Karnovsky's fixative at 4° C. overnight, and then transferred to 0.1 M cacodylate buffer at pH 7.4. Ciliary body specimens were observed by stereomicroscopy at 1 day after PDT for normal mice in the 4.0 mg/kg dose-treated group. Tissues were postfixed in aqueous 2% osmium tetroxide, stained en bloc with Uranyl Acetate, dehydrated in graded ethanols, and embedded in Epon. One-micrometer-thick sections were stained with 0.5% toluidine blue in borate buffer for light microscopy and examined using a photomicroscope (Leica Microsystems, Wetzlar, Germany). Thin sections were stained with aqueous uranyl acetate, and Sato's lead stain, and examined with a transmission electron microscope (CM 10; Phillips, Eindhoven, The Netherlands).

ciliary body [3] = experiment: TUNEL staining after PDT in DBA/2J mice; settings: 1.0 mg/kg, 180 degrees; 1 day after PDT
Description: as §1

DBA/2J mice = experiment: Ocular complications of ciliary body PDT in DBA/2J mice (preliminary and changed parameters)

Substance: verteporfin
- TUNEL positive (apoptotic) cells (ciliary body [1]): some TUNEL positive cells in the ciliary body and retina of the PDT treated eyes
- lectin staining of ciliary body vessels on the treated side (ciliary body [1]): showed little staining with lectin
- number of retinal ganglion cells in the treated eyes (retinal ganglion cells; 1.0 mg/kg PDT at 8 months, counted at 11 months of age): 3905±627 /mm^2
- retinal ganglion cell survival, treated versus control eyes (retinal ganglion cells; 1.0 mg/kg PDT, 3 month period, p<0.05): significantly higher than control eyes; also recorded: loss of retinal ganglion cells over the 3 month period was significantly reduced
- ciliary body histological findings (ciliary body [2]; 8 weeks after PDT): ciliary body blood vessels were recanalized, and edema had disappeared
- ciliary body histological findings (ciliary body [2]; 6 hours after PDT): most ciliary body blood vessels in the treated eyes were thrombosed
- ciliary body histological findings (ciliary body [2]; 1 day after PDT): most ciliary body blood vessels were still thrombosed, and the ciliary epithelium and stroma were severely damaged and edematous
- ciliary body histological findings (ciliary body [2]; 7 days after PDT): Some of ciliary body blood vessels were still thrombosed
- TUNEL positive (apoptotic) cells (ciliary body [3]): Many TUNEL positive cells were seen in the ciliary process in both the treated and untreated sides of the treated eye
- ocular complications (DBA/2J mice; 2 mg/kg, irradiated in 360 degrees of the corneoscleral limbus (preliminary)): severe damage such as corneal edema, hyphema, and corneal neovascularization occurred with high frequency
- ocular complications (DBA/2J mice; after change of parameters (1.0 mg/kg, 180 degrees)): these complications were not seen

— patent US10272261B2, “Methods and compositions for treating ocular glaucoma” (Massachusetts Eye and Ear Infirmary, priority 2004, dated 2019)
